In series [1] the test system is S.D. line male rats. Put plainly: Antidepressant effect, compelled swim test (Porsolt), time over which rats remain motionless. The class given is in vivo, rat. On the set-up: Antidepressant effect / Antidepressant effect, longevity: scale not given here. The note with it: for inhibition in vivo at 20 mg/kg: Rattus norvegicus, po, 0.5 h, 30 min before swim, read-out: Antidepressant effect, Efficacy. Here is the method: An antidepression test was conducted in accordance with the method of Porsolt et al. (Europ. J. Pharmacol., 47, 379-391, 1978). Stated more specifically, 7-wk old S.D. line male rats were placed in a glass cylinder (18 cm^.phi. ×40 cm^H) for 15 min. The cylinder was filled with water (25° C.) to a depth of 15 cm. Thereafter, the rats were placed in a hot environment (32° C.) for 15 min before they were returned to the cage. Twenty-four hours later, the rats were compelled again to swim in the same cylinder for 5 min and the total time over which the rats remained motionless was measured. A test drug was administered perorally to each animal 30 min before it was compelled to swim for 5 min. Antidepressant agents are known to be capable of specifically reducing the time over which the rats would remain motionless (Psyehopharmaeol., 83, 1-16, 1984, and ibid., 94, 147-160, 1988). The antidepressant effect was calculated by the following formula: [formula]
(§1) The procedure of Test Examples 2 and 3 were repeated except that test compounds were administered perorally in a dose of 10 mg/kg.
(§2) The procedures of Test Example 2 and 3 were repeated, except that test compounds were administered perorally in a dose of 20 mg/kg to check the longevity of their antianxiety and antidepressant effects for 0.5, 2 and 4 h.

The test system of series [2] is S.D. line male rats. The series is described as follows: Antianxiety effect, water drinking under punishment (Vogel). The class given is in vivo, rat. On the set-up: Antianxiety effect / Antianxiety effect, longevity: unit not given here. Conditions: for change in vivo at 20 mg/kg: Rattus norvegicus, po, read-out: Antianxiety effect, Efficacy; for Antianxiety and antidepressant effects: Table 6. As to the method: Antianxiety test was conducted in accordance with a method adapted from the method of Vogel et al. (Psychopharmacol., 21, 1-7, 1971). Stated more specifically, S.D. line male rats weighing 250-300 g were entirely kept from water for 24 h and then placed in a concrete experimental box. […] The bottom of the box was made of a stainless steel grid, from which electric shock (0.2 mA, 0.5 sec) could be applied to the limbs of rats. The test schedule was as follows: first, the rats were acclimatized to the experimental box and trained for drinking water; this was done for 3 min without electric shock. The quantity of water drunk by the rats was then measured (under non-punishment). Then, the rats were kept from drinking water for 24 h. Thereafter, the quantity of water drunk by each rat was measured (before administration of test compound) under such conditions that an electric shock was applied each time a rat drank one water drop (under punishment).Thirty minutes later, a test drug was administered perorally and after an additional 20 min, the quantity of water drunk by each rat was again measured under punishment (after administration of test compound). The quantity of water drunk by rats will decrease under punishment but it is known that the initial level can be restored by administering an antianxiety agent.
The antianxiety effect of a test compound was calculated by the following formula: [formula]
as §1, §2

Series [3] concerns the target T1, serotonin 2 receptor (Rattus norvegicus, UniProt P14842).
T1 construct: the cortex and hippocampal tissue were extracted from the brain; from tissue; host or cells: brain cortex and hippocampus of 7-week-old male S.D. rats, washed membrane homogenate
The series is described as follows: Serotonin 2 receptor binding experiment (3H-ketancerine). The note with it: rat cortex and hippocampal tissue; 0.5 nM 3H-ketancerine; IC50 in M; read-out: -logIC50 5-HT2 (converted). Here is the method:
(§3) Affinity for intracerebral serotonin 1A and serotonin 2 receptor was checked in accordance with the method of Hall et al. (J. Neurochem., 44, 1685-1695, 1985) and the method of Leysen et al. (Mol. Pharmacol., 21, 301-314, 1982).
(§4) Stated more specifically, the cortex and hippocampal tissue were extracted from the brain of 7-wk old S.D. line male rats, mixed with 20 volumes of Tris-HCl buffer (50 mM, pH 7.7) and homogenized with a Teflon homogenizer. Thereafter, the homogenate was centrifuged at 39800×g for 20 min and the supernatant was discarded. Forty volumes of a buffer were added to the precipitate and the mixture was homogenized with a Polytron homogenizer, with the homogenate being centrifuged under the same condition as set forth above. The same procedure was repeated two more times and the final precipitate was homogenized with 40 volumes of a buffer; thereafter, the homogenate was stored at least overnight at -80° C. On the day when binding experiments were to be conducted, the homogenate was thawed at room temperature and incubated at 37° C. for 20 min to remove the endogenous serotonin.
(§5) Thereafter, centrifugation was conducted at 39800×g for 20 min and 40 volumes of a buffer were added to the precipitate, followed by homogenization. This procedure was repeated three times; to the final precipitate, a buffer was added in 65 volumes for the case of serotonin 1A receptor and in 80 volumes for the case of serotonin 2 receptor and the mixture was homogenized in preparation for the binding experiments that are described below. All procedures of experimentation except storage in a frozen state and thawing at room temperature were conducted at 4° C. or below.
A reaction solution containing 0.5 nM (final concentration) of ^3 H-ketancerine and 500 μl of brain homogenate in 1.0 ml (final volume) of a buffer was incubated at 30° C. for 30 min. Subsequent procedures were the same as in the serotonin 1A receptor binding experiment and IC50 (M) was determined accordingly. To determine the amount of specific binding, the amount of binding in the presence of excess unlabelled methysergide ([…]) was subtracted from the total amount of binding.

The subject of series [4] is S.D. line male rats. Put plainly: Sedative action, amount of spontaneous movement (Animex). Conditions: for Amount of Spontaneous Movement: control 405.2 ± 47.7. It counts as in vivo, rat. Here is the method:
Seven-week old male S.D. line rats were administered a test drug perorally and after the passage of 30 min, the amount of spontaneous movement of the rats was measured for 10 min by means of Animex.

Series [5] addresses T2, serotonin 1A receptor (Rattus norvegicus, UniProt P19327).
T2 construct: the cortex and hippocampal tissue were extracted from the brain; from tissue; host or cells: brain cortex and hippocampus of 7-week-old male S.D. rats, washed membrane homogenate
T2 sequence (P19327 1-422): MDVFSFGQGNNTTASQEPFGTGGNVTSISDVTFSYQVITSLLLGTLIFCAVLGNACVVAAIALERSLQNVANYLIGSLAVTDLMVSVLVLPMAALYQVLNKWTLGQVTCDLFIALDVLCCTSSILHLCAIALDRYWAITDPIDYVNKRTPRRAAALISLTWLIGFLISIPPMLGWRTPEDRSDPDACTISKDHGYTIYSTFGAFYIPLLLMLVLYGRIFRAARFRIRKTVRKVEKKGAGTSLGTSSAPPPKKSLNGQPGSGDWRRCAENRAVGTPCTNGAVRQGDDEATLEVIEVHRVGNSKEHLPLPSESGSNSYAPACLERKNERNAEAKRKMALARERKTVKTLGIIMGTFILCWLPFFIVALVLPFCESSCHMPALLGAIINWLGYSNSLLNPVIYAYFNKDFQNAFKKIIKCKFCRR
Put plainly: Serotonin 1A receptor binding experiment (3H-8-OH-DPAT). Conditions: rat cortex and hippocampal tissue, 0.5 nM 3H-8-OH-DPAT, IC50 in M. Here is the method: as §3, §4, §5
A reaction solution containing 0.5 nM (final concentration) of 3H-8-hydroxy-2-(di-n-propylamino)tetralin (8-OH-DPAT), […] and 500 μl of brain homogenate in 1.0 ml (final volume) of a buffer was incubated at 25° C. for 30 min. Thereafter, the reaction solution was filtered by rapid passage through a glass filler. The filter was washed rapidly with an ice-cooled buffer (3 ml) three times, put into a scintillation vial together with a scintillation cocktail, and left to stand overnight at 4° C. On the next day, the vial was agitated well and measurements were conducted with a scintillation counter. To determine the amount of specific binding, the amount of binding in the presence of excess unlabeled serotonin (10 μM) was subtracted from the total amount of binding. As an index for the affinity of a test compound for either receptor, the concentration at which the specific binding of ^3 H-DPAT was inhibited by 50% (IC50, M) was determined using computer software EBDA/LIGAND (Biosoft).

The mark [6] stands for this setting: peroral 20 mg/kg, 0.5 h after administration.
Where [7] appears, read: peroral 20 mg/kg, 2.0 h after administration.
Where [8] appears, read: peroral 20 mg/kg, 4.0 h after administration.
Where [9] appears, read: read-out: -logIC50 5-HT1A (converted).

Counter-ions that a name gives are not always drawn. Like-named read-outs stand apart in the source and are kept apart here.

T1 sequence (P14842 whole entry): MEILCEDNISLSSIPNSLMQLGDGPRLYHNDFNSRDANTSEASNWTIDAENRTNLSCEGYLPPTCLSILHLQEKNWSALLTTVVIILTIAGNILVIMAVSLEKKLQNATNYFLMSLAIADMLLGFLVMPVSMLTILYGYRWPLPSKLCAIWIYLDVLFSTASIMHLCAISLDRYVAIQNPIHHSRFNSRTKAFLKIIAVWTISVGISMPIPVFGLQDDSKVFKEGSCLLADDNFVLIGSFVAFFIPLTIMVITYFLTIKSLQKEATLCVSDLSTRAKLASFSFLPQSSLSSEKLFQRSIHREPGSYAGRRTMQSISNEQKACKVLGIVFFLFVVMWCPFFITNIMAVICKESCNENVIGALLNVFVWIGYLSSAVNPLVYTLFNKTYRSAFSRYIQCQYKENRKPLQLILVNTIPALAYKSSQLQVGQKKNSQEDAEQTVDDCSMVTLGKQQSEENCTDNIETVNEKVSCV

As to `O=C1CC2(CCCC2)CC(=O)N1CCNCC1COc2ccccc2O1` (stereo not drawn) [MDL-73005, reference compound], the inhibition in vivo at 20 mg/kg in series [1] (peroral 20 mg/kg) amounted to 28.3 ± 10.9%. Further, the “Antidepressant effect” value in series [1] (peroral 20 mg/kg) was “extremely weak antidepressant effect”. Moreover, in series [2] (peroral 20 mg/kg), the change in vivo at 20 mg/kg worked out at 67.6 ± 5.5%. Also, the “Antianxiety effect, longevity” value in series [2] (setting [6]) is 44.9; in series [2] (setting [7]) it was 17.0; in series [2] (setting [8]), 8.1. The IC50 in series [3] is greater than 1000 nM; in series [5] (setting [9]), 36.3 nM. For the same compound, the results for the “Amount of Spontaneous Movement” value in series [4] (20 mg/kg peroral), in series [4] (40 mg/kg peroral) and in series [4] (60 mg/kg peroral) were 395.8 Counts/10 min, 331.5 Counts/10 min and 335.0 Counts/10 min, respectively. Also, in series [4] (peroral 20-60 mg/kg), the “Sedative action / spontaneous movement” value is listed as “no appreciable sedative action”.
For the compound `COc1cccc2c1OC(CNCCNC(=O)C13CC4CC(CC(C4)C1)C3)CO2` (stereo not drawn) [Compound 5, N-{[2-(8-methoxy-1,4-benzodioxan-2ylmethyl)amino]ethyl}tricyclo[3,3,1,1^3'7]decane-1-carboxyamide], in series [1] (peroral 20 mg/kg), the inhibition in vivo at 20 mg/kg worked out at 97.6 ± 0.9% and the “Antidepressant effect” value was “better antidepressant effects than WY-50324”. Besides, in series [2] (peroral 20 mg/kg), the change in vivo at 20 mg/kg was 40.9 ± 7.3% and the “Antianxiety effect” value is reported as “almost comparable effects to WY-50324”. The IC50 in series [3] is 10 nM. Further, the IC50 in series [5] (setting [9]) was 0.347 nM.
With `Nc1ccc2c(c1)OC(CNCCNC(=O)C13CC4CC(CC(C4)C1)C3)CO2` (stereo not drawn) [Compound 12, N-{[2-(7-amino-1,4-benzodioxan-2-ylmethyl)amino]ethyl}tricyclo[3,3,1,1^3, ^7]decane-1-carboxyamide], in series [1] (peroral 20 mg/kg), the inhibition in vivo at 20 mg/kg is 57 ± 5.9% and the “Antidepressant effect” value is on record as “almost comparable effects to WY-50324”. In addition, in series [2] (peroral 10 mg/kg), the Antianxiety effect is recorded as 52.1 ± 2.5; the “Antianxiety and antidepressant effects” value was “superiority”. In addition, in series [3], the IC50 is 200 nM. For the same compound, the IC50 in series [5] (setting [9]) was 0.398 nM.
Consider `O=C1C2C3CCC(C3)C2C(=O)N1CCCCN1CCN(c2ncccn2)CC1` (stereo not drawn) [SM-3997, reference compound], for which, in series [1] (peroral 20 mg/kg), the inhibition in vivo at 20 mg/kg was -10.5 ± 10.6%. Also, the change in vivo at 20 mg/kg in series [2] (peroral 20 mg/kg) was determined as 48.5 ± 15.8%. Further, the IC50 in series [3] was 550 nM; in series [5] (-logIC50 5-HT1A), 31.6 nM.
Compound `Cc1cccc2c1OC(CNCCNC(=O)C13CC4CC(CC(C4)C1)C3)CO2` (single isomer, unassigned; (-)) [Compound 7, (-)-N-{[2-(8-methyl-1,4-benzodioxan-2ylmethyl)amino]ethyl}tricyclo[3,3,1^3, ^7]decane-1carboxyamide hydrochloride] had an Antidepressant effect in series [1] (peroral 10 mg/kg) of 62.7 ± 12.4. In addition, the “Antidepressant effect, longevity” value in series [1] (setting [6]) is 72.1; in series [1] (setting [7]) it was 76.9; in series [1] (setting [8]), 38.1. In series [2] (peroral 10 mg/kg), this compound registered an Antianxiety effect of 45.4 ± 3.4. The “Antianxiety and antidepressant effects” value in series [2] (peroral 10 mg/kg) is on record as “superiority”. For the same compound, the results for the “Antianxiety effect, longevity” value in series [2] (setting [6]), in series [2] (setting [7]) and in series [2] (setting [8]) were 66.0, 51.6 and 26.1, respectively. Moreover, the IC50 was 15.8 nM in series [3] and 0.316 nM in series [5] (setting [9]).
On to `O=C(NCCNCC1COc2ccccc2O1)C12CC3CC(CC(C3)C1)C2` (stereo not drawn) [Compound 2, N-{[2-(1,4-benzodioxan-2-ylmethyl)amino]ethyl}tricyclo[3,3,1,1^3, ^7]decane-1-carboxyamide], for which, in series [1] (peroral 20 mg/kg), the inhibition in vivo at 20 mg/kg turned out to be 85 ± 8.5% and the “Antidepressant effect” value is “better antidepressant effects than WY-50324”. For the same compound, in series [2] (peroral 20 mg/kg), the change in vivo at 20 mg/kg is 39.3 ± 10.8% and the “Antianxiety effect” value is “almost comparable effects to WY-50324”. The IC50 in series [3] is 35.5 nM. In addition, the IC50 in series [5] (setting [9]) is 302 nM.
For `O=C(NCCNCC1COc2ccc(Cl)cc2O1)C12CC3CC(CC(C3)C1)C2` (stereo not drawn) [Compound 4, N-{[2-(7-chloro-1,4-benzodioxan-2ylmethyl)amino]ethyl}tricyclo[3,3,1,1^3, ^7]decane-1-carboxyamide], in series [1] (peroral 20 mg/kg), the inhibition in vivo at 20 mg/kg was found to be 51.9 ± 8.2% and the “Antidepressant effect” value is reported as “almost comparable effects to WY-50324”. In series [2] (peroral 20 mg/kg), the change in vivo at 20 mg/kg is 76.8 ± 13.7% and the “Antianxiety effect” value is given as “comparable effects to MDL-73005”. In addition, in series [3], the IC50 was 42.7 nM. The IC50 in series [5] (setting [9]) is 5.13 nM.
For the compound `Cc1ccc2c(c1)OCC(CNCCNC(=O)C13CC4CC(CC(C4)C1)C3)O2` (stereo not drawn) [Compound 3, N-{[2-(6-methyl-1,4-benzodioxan-2ylmethyl)amino]ethyl}tricyclo[3,3,1,1^3, ^7]decane-1-carboxyamide], in series [1] (peroral 20 mg/kg), the inhibition in vivo at 20 mg/kg came to 56.8 ± 9% and the “Antidepressant effect” value is given as “almost comparable effects to WY-50324”. For the same compound, in series [2] (peroral 20 mg/kg), the change in vivo at 20 mg/kg stood at 63.9 ± 6.8% and the “Antianxiety effect” value is “comparable effects to MDL-73005”. In series [3], the IC50 is 23.4 nM. Also, in series [5] (setting [9]), the IC50 was 2.51 nM.

The record behind these values is US5480905A, “Benzodioxane derivatives” (Chugai Seiyaku Kabushiki Kaisha, priority 1991, dated 1996).
